# Reference: patent US20190388389A1, “METHODS AND COMPOSITIONS OF CARNOSOL FOR INHIBITING UVB-INDUCED SKIN DAMAGE” (Ohio University, priority 2017, published 2019)
# Columns and labels:
# [1] = UVB irradiation of carnosol in DMSO, Mass Spectrum; type: physicochemical; conditions: 50 mJ/cm^2 UVB
# Procedure: FIG. 10B. The carnosol was irradiated with UVB first in the DMSO solution, and then a Mass Spectrum was run to detect the decomposition of the compound.
# FIG. 10C. Four major decomposed compounds were detected, with their molecular structure and weight solved.
# (§1) UVB was generated from a Bench XX-Series UV Lamp (UVP Inc.) equipped with two 15-watt UVB tubes (UVP Inc.). The intensity of UVB was calibrated by a UVP model UVX digital radiometer (UVP Inc.) after the lamps warmed up for 5 min. For irradiating cells, the dose rate for 8 mJ/cm^2 or 50 mJ/cm^2 of UVB radiation was 0.8 or 3.8 mW/s respectively. Medium was removed before exposing the cells to UVB. After UVB radiation, fresh medium was added to the culture plates with or without drugs, and the cells were continue incubating at 37° C. with 5% CO2 until further analysis. Carnosol was disovled in DMSO and was irradiated with 50 mJ/cm^2 of UVB radiation at a dose rate of 3.8 mW/s before subjecting to cells or structure analysis using Mass Spectrum.
# NO* in HaCaT cells = assay: Nitric oxide measurement (DAF-2DA) after UVB radiation; type: cell-based, Human; conditions: 20 μM carnosol
# Procedure: FIGS. 4A-4B: Quantitative analysis of NO* and ONOO^− after UVB radiation. HaCaT cells were irradiated with UVB radiation in the presence or absence of carnosol (20 μM). At indicated time point, cells were stained with DAF-2DA or DAR. The fluorescent intensity was then measured and normalized to cell viability. (FIG. 4A) Quantitative measurement of NO*. (FIG. 4B) Quantitative measurement of ONOO^−. *p<0.05 versus corresponded group with carnosol treatment upon UVB radiation.
# The level of NO* was measured by 5 mM diaminofluorescein diacetate (DAF-2DA) (ex490/em520 nm) and ONOO^− was measured by 5 mM diaminorhodamine (DAR) (ex488/em515 nm). 1×10^5 HaCaT cells were seeded in 96-well plate one day before measurement. […] The cells were then incubated in dark for 2 h at room temperature and the fluorescence was measured by luminometer (Molecular devices Spectra Max M2). The reading was then normalized by AlamarBlue cell viability assay (Life technology). 10% of the Alamar Blue reagent was added to cells with medium followed by 2 h incubation at 37° C. in dark then read the fluorescent at ex570/em590 nm using luminometer (Molecular devices Spectra Max M2).
# Both NO* and ONOO^− are induced by UVB radiation. By using DAF-2DA (5 mM) and DAR (5 mM), the effect of carnosol on intracellular NO* and ONOO^− level, in a time dependent manner upon UVB radiation, was also measured.
# HaCaT cells = assay: Cell survival analysis (Annexin V/PI flow cytometry), HaCaT; type: cell-based
# Procedure: FIGS. 6A-6C: Carnosol protects UVB-induced cell death. Cells were exposed to UVB radiation with different dose of carnosol treatment. At indicated time point, cells were collected and Annexin V/PI apoptosis detection kit was used to detect cell apoptosis. (FIG. 6A) HaCaT cell survival rate with different concentrations (μM) of carnosol treatment at 12 h post UVB radiation. (FIG. 6B) Time dependent assay (h) in the presence or absence of carnosol treatment in HaCaT cells. (FIG. 6C) MEF cells treated with 20 μM carnosol at indicated time point (h). The error bars present the standard deviation of three sets of independent experiments. *p<0.05 versus control group; **p<0.05 versus corresponded UV group.
# as §1
# Carnosol (Cayman) (FIG. 1) was added to cells at indicated concentration at 1 h before exposing the cells to UVB radiation. After radiation, cells were continuously incubated with or without carnosol in the medium until further analysis.
# Total cell number of 1×10^5 was used for each analysis using flow cytometer. Fluorescein isothiocyanate (FITC) conjugated-annexin V (ANXS)/propidium iodide (PI) apoptosis detection kit (BD Biosciences) were used to stain the cells through the determination of the loss of membrane phospholipid […] and membrane integrity. Cell survival rate (R) was calculated as: R=[1×10^5−number of positive stained cells]/1×10^5. Briefly, the cells were harvested by 0.25% trypsin digestion, combined with the cells floating in the medium and washed twice with cold PBS. The cells were then suspended in ANXS binding buffer (10 mM Hepes/NaOH, pH 7.4, 140 mM NaCl and 2.5 mM CaCl2). The cell suspension was mixed with 5 μL ANXS-FITC and 5 μL PI. The cell mixture was incubated for […] in dark at room temperature and the ANXS/PI double-stained cells were analyzed using a FACSort Flow Cytometer (BD Science) equipped with CellQuest software (BD Science).
smiles,measurement,setting,value
CC(C)c1cc2c(c(O)c1O)[C@@]13CCCC(C)(C)[C@@H]1C[C@@H]2OC3=O [carnosol],decomposition upon UVB radiation,[1],breaks down to 4 major products
same,reduction of NO* level,NO* in HaCaT cells; average from 2 h to 24 h post UVB,about 40%
same,NO* level of cells without radiation,NO* in HaCaT cells; no UVB,little effect
same,cell survival with UVB radiation,"HaCaT cells; 1 μM carnosol, 12 h post UVB",no statistically significant effect
same,cell survival with UVB radiation,"HaCaT cells; 10 μM carnosol, 12 h post UVB",no statistically significant effect
same,toxicity to the cells without UVB radiation,HaCaT cells; 30 μM carnosol,limited toxicity
same,cell survival,"HaCaT cells; carnosol alone 1-30 μM, no UVB, 12 h",no significant cell survival change
same,cell survival rate,"HaCaT cells; dose assay, 20 μM carnosol, 12 h post UVB, UVB alone 20%",30%
same,cell survival rate,"HaCaT cells; dose assay, 30 μM carnosol, 12 h post UVB, vs 20 μM",no further increasing
same,cell survival rate,"HaCaT cells; time assay, 20 μM carnosol, 6 h post UVB",no significance
same,cell survival rate,"HaCaT cells; time assay, 20 μM carnosol, 12 h post UVB, UVB alone 30%",40%
same,cell survival rate,"HaCaT cells; time assay, 20 μM carnosol, 24 h post UVB, UVB alone 7%",15%
